Measured values from US12509431B2, “1,4-dihydroquinazolinone compounds and uses thereof” (Edgewise Therapeutics, Inc., priority 2022, dated 2025).

Assays:
Assay type in all cases: biochemical
Details in all cases: Table 8
Porcine Atria myofibrils = assay: Myofibril ATPase assay (PK/LDH NADH-coupled), atria myofibrils
Procedure: (§1) Myofibril ATPase Assay Procedure: BSA, ATP, NADH, PEP, and DTT solutions were thawed at room temperature, then transferred to ice. Pellet-frozen myofibrils were transferred with approximately twice the required volume into a sufficiently large tube and capped. Myofibrils were thawed by rolling in a water bath for approximately 15 min at room temperature and cooled on ice. Buffers A and B were prepared by adjusting volumes as necessary for required number of wells and stored on ice. 0.5 μL of the compounds to be assayed were added into wells. 25 μL of Buffer A was dispensed into the wells, followed by 25 μL of Buffer B. The wells were measured for absorbance at 340 nm, using a kinetic protocol in which the wells are read every 1.5-2 min for 75 min. Assay data analysis was performed using a python script that filtered the raw data to retain those points falling between a starting and ending time and between a maximum and minimum absorbance, then used the filtered time-domain 340 nm absorbance data in each well to calculate a slope via linear regression analysis in units of mAU/min. Compound slopes were normalized between 100% and 0% activity, where 100% represented the slope of wells containing only compound vehicle, and fit to a 4-parameter logistic model. In addition to the fit parameters, the EC25% is calculated, relative to the 100% normalized value. In the case of inhibitors, EC50% is also calculated, if available. Fit parameters, calculated effective concentrations, filtered raw data, and calculated slopes were exported, in addition to compound-specific graphs of normalized ATPase activity versus concentration in μM.

[1] = system: Rabbit Skeletal myofibrils (rabbit psoas muscle); assay: Myofibril ATPase assay (PK/LDH NADH-coupled), skeletal myofibrils
Procedure: (§2) Myofibril ATPase assays are known in the art to be useful in evaluating small molecules for the treatment of HCM and other cardiac indications. Myosin ATPase activity is assessed by using a coupled reaction system, in which ADP generated by the myosin ATPase function is coupled to the disappearance of NADH through the pyruvate kinase/lactate dehydrogenase (PK-LDH) system. ATPase activity produces ADP, which is used as a substrate for PK to produce pyruvate and regenerate ATP. The pyruvate is then used as a substrate by LDH to oxidize NADH to NAD+. The rate of the reaction is monitored through the time-dependent disappearance of NADH using absorbance at 340 nm, which, when the couple system is in stoichiometric excess, is directly correlated to the ATPase activity of the myosin. Inhibition of ATPase activity by the assayed compounds is indicated by a reduced rate of NADH loss, relative to vehicle-treated controls, over the experimental time window. Rabbit Skeletal and Porcine Ventricle are the primary sources of myofibril material.
(§3) Materials: The following stock solutions and reagents were used in the Myofibril ATPase Assay:
(§4) Stock Solutions of pCa buffer. Combine PIPES, CaCl2), and EGTA solutions with water. Adjust pH to 7.0 and bring final volume to 100 mL.
(§5) Buffer A & Buffer B. Prepare buffers A and B according to the table below.
as §1
Skeletal Myofibril Isolation:
Myofibrils from various animals and tissue types were acquired from a variety of sources: rabbit psoas muscle was purchased from Pel-Freez Biologicals (Rogers, AR) and porcine cardiac muscle was purchased from Exemplar Genetics. All myofibrils were prepared using a method based upon those described in Herrmann et al. (1993) and summarized here. Minced tissue was homogenized for 50 sec with a Polytron homogenizer into 10 volumes (relative to weight in grams) of Isolation Buffer A (50 mM Tris, pH 8.0, 0.1 M potassium acetate, 5 mM KCl, 2 mM DTT, 5 mM EDTA, 0.5% v/v Triton X-100) supplemented with 0.1 mM PMSF, 10 μM leupeptin, 5 μM pepstatin, and 0.5 mM sodium azide. The myofibrils were recovered by centrifugation (Beckman Allegra 6R, 1200 g, 10 min) and resuspended in 10 volumes Isolation Buffer B (Buffer A above without protease inhibitors or sodium azide). The myofibrils were further homogenized as before and recovered by centrifugation. […]

[2] = target: T1, Porcine Ventricle myofibrils (left ventricle of Yucatan minipigs) (Sus scrofa, UniProt P79293); assay: Myofibril ATPase assay (PK/LDH NADH-coupled), ventricle myofibrils
T1 construct: Myofibrils from porcine cardiac muscle was isolated from the left ventricle of Yucatan minipigs; tissue Exemplar Genetics; host or cells: left ventricle of Yucatan minipigs
T1 sequence (P79293 whole entry): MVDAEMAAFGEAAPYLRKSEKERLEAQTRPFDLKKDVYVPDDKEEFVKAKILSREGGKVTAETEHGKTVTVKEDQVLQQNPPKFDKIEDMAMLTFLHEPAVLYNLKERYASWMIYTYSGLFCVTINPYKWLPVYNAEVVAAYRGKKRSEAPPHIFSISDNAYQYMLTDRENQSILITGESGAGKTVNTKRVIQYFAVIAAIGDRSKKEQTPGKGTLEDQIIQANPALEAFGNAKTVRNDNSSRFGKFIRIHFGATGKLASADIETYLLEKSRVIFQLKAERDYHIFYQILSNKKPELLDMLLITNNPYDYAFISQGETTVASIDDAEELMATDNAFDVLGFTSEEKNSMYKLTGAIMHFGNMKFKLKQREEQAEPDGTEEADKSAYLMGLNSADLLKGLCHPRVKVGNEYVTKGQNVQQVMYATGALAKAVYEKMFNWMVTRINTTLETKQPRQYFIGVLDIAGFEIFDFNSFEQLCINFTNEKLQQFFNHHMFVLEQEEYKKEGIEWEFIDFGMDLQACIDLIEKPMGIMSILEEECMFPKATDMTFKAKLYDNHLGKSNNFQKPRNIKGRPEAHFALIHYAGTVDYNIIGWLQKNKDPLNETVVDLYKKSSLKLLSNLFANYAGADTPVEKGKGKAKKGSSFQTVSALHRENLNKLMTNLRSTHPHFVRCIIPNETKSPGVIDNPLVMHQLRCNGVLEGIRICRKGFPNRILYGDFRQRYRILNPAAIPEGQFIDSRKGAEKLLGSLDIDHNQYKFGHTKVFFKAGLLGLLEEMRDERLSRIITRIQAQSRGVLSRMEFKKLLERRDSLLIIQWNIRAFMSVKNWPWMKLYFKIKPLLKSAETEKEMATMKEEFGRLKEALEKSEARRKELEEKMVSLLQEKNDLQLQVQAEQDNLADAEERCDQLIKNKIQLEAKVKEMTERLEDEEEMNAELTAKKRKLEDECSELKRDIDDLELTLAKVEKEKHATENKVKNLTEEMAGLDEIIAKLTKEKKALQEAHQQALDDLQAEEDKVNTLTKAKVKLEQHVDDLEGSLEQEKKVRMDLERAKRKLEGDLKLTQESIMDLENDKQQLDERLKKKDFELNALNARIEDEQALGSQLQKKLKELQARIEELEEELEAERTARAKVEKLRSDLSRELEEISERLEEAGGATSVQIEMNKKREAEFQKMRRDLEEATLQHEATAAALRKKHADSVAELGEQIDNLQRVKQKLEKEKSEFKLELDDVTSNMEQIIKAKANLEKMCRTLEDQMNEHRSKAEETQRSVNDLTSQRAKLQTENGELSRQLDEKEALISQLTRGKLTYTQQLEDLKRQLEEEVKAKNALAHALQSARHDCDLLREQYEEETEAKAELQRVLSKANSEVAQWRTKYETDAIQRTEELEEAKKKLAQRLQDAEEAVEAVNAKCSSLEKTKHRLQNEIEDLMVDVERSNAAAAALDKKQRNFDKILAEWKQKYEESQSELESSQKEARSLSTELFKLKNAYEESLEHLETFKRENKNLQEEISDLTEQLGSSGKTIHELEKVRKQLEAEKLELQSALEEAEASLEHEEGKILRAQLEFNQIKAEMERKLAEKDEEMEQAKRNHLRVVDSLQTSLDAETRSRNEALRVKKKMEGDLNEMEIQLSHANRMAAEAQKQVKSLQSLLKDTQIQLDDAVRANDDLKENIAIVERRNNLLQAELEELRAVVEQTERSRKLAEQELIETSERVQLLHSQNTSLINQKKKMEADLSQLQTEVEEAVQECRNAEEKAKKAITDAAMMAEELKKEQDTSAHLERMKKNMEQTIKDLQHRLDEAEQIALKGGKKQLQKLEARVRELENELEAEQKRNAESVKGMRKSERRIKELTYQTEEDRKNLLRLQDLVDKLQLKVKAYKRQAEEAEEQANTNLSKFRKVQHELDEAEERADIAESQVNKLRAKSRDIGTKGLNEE
Procedure: as §2, §3, §4, §5, §1
Cardiac Myofibril Isolation:
Myofibrils from porcine cardiac muscle was isolated from the left ventricle of Yucatan minipigs. Myofibrils were prepared using a method based upon those described in Herrmann et al. (1993) and summarized here. Minced tissue was homogenized for 50 sec with a Polytron homogenizer into 10 volumes (relative to weight in grams) of Isolation Buffer A (75 mM KCl, 10 mM Imidazole, 2 mM MgCl2, 2 mM EGTA, 1 mM NaN3, 1% v/v Triton X-100) supplemented with 4 mM Phosphocreatine, 1 mM ATP, 50 mM BDM, 1 mM DTT, 1 mM Benzamide HCl, 0.1 mM PMSF, 10 μM leupeptin, 5 μM pepstatin, and 10 mM EDTA. The myofibrils were recovered by centrifugation (Beckman Allegra 6R, 1200 g, 15 min) and resuspended in 10 volumes Isolation Buffer B (Buffer A above without supplemental reagents). The myofibrils were further homogenized described above and recovered by centrifugation for 7 mins. Cellular membranes and debris were removed by 3 washes in Isolation Buffer B, centrifuging each as before. […]

Compound | Porcine Atria IC25 (Porcine Atria myofibrils) | Rabbit Psoas IC25 [1] | Porcine Ventricle IC25 [2]
C[C@H](NC(=O)CN1Cc2cc(F)c(F)cc2NC1=O)c1ccc(C#N)cc1F [Compound B45, N-[(1S)-1-(4-cyano-2-fluorophenyl)ethyl]-2-(6,7-difluoro-2-oxo-1,4-dihydroquinazolin-3-yl)acetamide] | 20 nM | 11.5 nM | 45.7 nM
C[C@H](NC(=O)[C@H](CC1CC1)N1Cc2c(ccc(F)c2F)NC1=O)c1ccc(F)cc1F [Compound B48] | 100000 nM | 12650 nM | 62100 nM
C[C@@H](NC(=O)[C@@H](CC1CC1)N1Cc2c(ccc(F)c2F)NC1=O)c1ccc(F)cc1F [Compound B49] | 6510 nM | 100000 nM | 45960 nM
CC(C)C[C@@H](C(=O)N[C@@H](C)c1ncc(F)cc1F)N1Cc2c(ccc(F)c2F)NC1=O [Compound B50] | 100000 nM | 100000 nM | 42560 nM
CC(C)C[C@H](C(=O)N[C@H](C)c1ncc(F)cc1F)N1Cc2c(ccc(F)c2F)NC1=O [Compound B51] | 49070 nM | 100000 nM | 100000 nM
Cc1cc(F)cc2c1NC(=O)N(CC(=O)N[C@H](C)c1ccc(C#N)cc1F)C2 [Compound B58] | 1020 nM | 6712 nM | 4230 nM
Cc1cc(F)cc2c1NC(=O)N(CC(=O)N[C@@H](C)c1ccc(C#N)cc1F)C2 [Compound B59, N-[(1S)-1-(4-cyano-2-fluorophenyl)ethyl]-2-(6-fluoro-8-methyl-2-oxo-1,4-dihydroquinazolin-3-yl)acetamide] | 630 nM | 81.8 nM | 951.9 nM
CC(C)C[C@@H](C(=O)N[C@@H](C)c1ccc(F)cc1F)N1Cc2c(ccc(F)c2F)NC1=O [Compound B60] | 800 nM | 2769 nM | 100000 nM
CC(C)C[C@H](C(=O)N[C@H](C)c1ccc(F)cc1F)N1Cc2c(ccc(F)c2F)NC1=O [Compound B61] | 100000 nM | 100000 nM | 100000 nM
O=C(CN1Cc2c(ccc(F)c2F)NC1=O)N[C@@H]1COCc2cc(F)cc(F)c21 [Compound B62] | 40 nM | 14.3 nM | 41.5 nM
O=C(CN1Cc2c(ccc(F)c2F)NC1=O)N[C@H]1COCc2cc(F)cc(F)c21 [Compound B63] | 1810 nM | 100000 nM | 100000 nM
CC(C)C[C@@H](C(=O)N[C@H](C)c1ccc(F)cc1F)N1Cc2cc(F)ccc2NC1=O [Compound B66] | 100000 nM | 100000 nM | 100000 nM
O=C(CN1Cc2c(ccc(F)c2F)NC1=O)N[C@@H]1COCc2cc(F)ccc21 [Compound B75] | 20 nM | 91.36 nM | 14.4 nM
CC(NC(=O)CN1Cc2cc(F)ccc2NC1=O)c1ccc(C#N)cc1F (stereo not drawn) [Compound B78] | 40 nM | 41.7 nM | 109.1 nM

The remaining lines, values ahead:

Porcine Atria IC25 (Porcine Atria myofibrils) | Rabbit Psoas IC25 [1] | Porcine Ventricle IC25 [2] | Compound
580 nM | 660.1 nM | 1847 nM | Cc1cnncc1[C@@H](C)NC(=O)CN1Cc2c(ccc(F)c2F)NC1=O [Compound B46]
420 nM | 3964 nM | 1456 nM | C[C@@H](NC(=O)CN1Cc2c(ccc(F)c2F)NC1=O)c1cc(C#N)c(F)cn1 [Compound B52]
110 nM | 579.6 nM | 962.8 nM | Cc1nc(C#N)cnc1[C@@H](C)NC(=O)CN1Cc2c(ccc(F)c2F)NC1=O [Compound B54]
1640 nM | 1887 nM | 1991 nM | Cc1cc(F)cc2c1CN(CC(=O)N[C@H](C)c1ccc(C#N)cc1F)C(=O)N2 [Compound B56]
40 nM | 13.9 nM | 89.9 nM | Cc1cc(F)cc2c1CN(CC(=O)N[C@@H](C)c1ccc(C#N)cc1F)C(=O)N2 [Compound B57]
520 nM | 777.3 nM | 579.8 nM | N#Cc1cnc2c(c1)OC[C@H]2NC(=O)CN1Cc2c(ccc(F)c2F)NC1=O [Compound B64]
2030 nM | 58620 nM | 1168 nM | Cc1cc([C@@H](C)NC(=O)CN2Cc3c(ccc(F)c3F)NC2=O)ncc1F [Compound B68]
350 nM | 1912 nM | 1114 nM | Cc1cc(C(C)NC(=O)CN2Cc3c(ccc(F)c3F)NC2=O)ncc1Cl (stereo not drawn) [Compound B70]
43180 nM | 100000 nM | 40660 nM | Cc1noc([C@@H](C)NC(=O)CN2Cc3c(ccc(F)c3F)NC2=O)n1 [Compound B71]
2250 nM | 1903 nM | 100000 nM | Cc1noc([C@H](C)NC(=O)CN2Cc3c(ccc(F)c3F)NC2=O)n1 [Compound B72]
1220 nM | 23300 nM | 2134 nM | C[C@@H](NC(=O)CN1Cc2c(ccc(F)c2F)NC1=O)c1cc2c(cn1)OCCN2C [Compound B73]
40 nM | 48.8 nM | 76.8 nM | CC(NC(=O)CN1Cc2c(ccc(F)c2F)NC1=O)c1ncc(C#N)cc1F (stereo not drawn) [Compound B77]
40 nM | 266.2 nM | 445.4 nM | COc1cc(C#N)ncc1[C@@H](C)NC(=O)CN1Cc2c(ccc(F)c2F)NC1=O [Compound B79]
60 nM | 8828 nM | 2778 nM | COc1cc(C#N)ncc1[C@H](C)NC(=O)CN1Cc2c(ccc(F)c2F)NC1=O [Compound B80]
90 nM | 5776 nM | 409.2 nM | C[C@@H](NC(=O)CN1Cc2c(ccc(F)c2F)NC1=O)c1ncc(Cl)cc1F [Compound B81]
30 nM | 18.3 nM | 56.1 nM | C[C@H](NC(=O)CN1Cc2c(ccc(F)c2F)NC1=O)c1ncc(Cl)cc1F [Compound B82]
